Reference: patent publication US11434222B2, “MAGL inhibitors” (H. LUNDBECK A/S, priority 2020, dated 2022)
Like-named read-outs stand apart in the source and are kept apart here.

Columns and labels:
[1] = Kinetic solubility in PBS; type: physicochemical; conditions: aqueous buffer, kinetic from dmso stock
Procedure: The kinetic solubility of test articles was determined in PBS at pH 2.0 and pH 7.4 in duplicate. A stock solution of test compound in DMSO (10 mM) was incubated at RT for 2 hours with shaking at 1,100 RPM. The sample was then filtered using a vacuum manifold, diluted, and analyzed by LC-MS/MS. Chromatographic conditions: Phenomenex Synergi 4μ Hydro-PR 80A column (2.0×30 mm) coupled with pre-guard column; mobile phase=0.1% formic acid in acetonitrile and 0.1% formic acid in water; flowrate=0.65 mL/min; column temperature=40° C.; injection volume: 3 μL.
Mass conditions: Turbo spray ion source; ESI ionization model; MRM scan type; Collison gas=6 L/min; Curtain gas=30 L/min; Nebulize gas=50 L/min; Auxiliary gas=50 L/min; Temperature=500 degrees C.; Ion spray voltage=+5500 v (positive MRM).
The filtered solution was analyzed and quantified against a standard of known concentration in DMSO using UPLC coupled with mass spectral peak identification and quantitation. Solubility values of the test articles were calculated using Microsoft Excel as follows (DF is the dilution factor): […]

MAGL = target: T1, MAGL (Homo sapiens, UniProt Q99685); assay: In vitro competitive activity-based protein profiling (PC3 human cell membrane proteomes); type: biochemical
T1 construct: PC3 human cell membrane proteomes; endogenous in cells; host or cells: PC3 human cells (membrane proteome)
T1 sequence (Q99685 1-303): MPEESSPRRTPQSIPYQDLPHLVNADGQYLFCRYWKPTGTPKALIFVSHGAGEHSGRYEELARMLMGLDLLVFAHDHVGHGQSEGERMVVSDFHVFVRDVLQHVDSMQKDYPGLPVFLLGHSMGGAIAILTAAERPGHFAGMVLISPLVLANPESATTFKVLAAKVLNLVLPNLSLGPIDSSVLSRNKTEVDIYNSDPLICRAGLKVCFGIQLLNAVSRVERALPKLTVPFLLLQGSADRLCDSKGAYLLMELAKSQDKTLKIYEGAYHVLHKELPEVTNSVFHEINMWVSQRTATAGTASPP
Procedure: PC3 human cell membrane proteomes (50 µL, 2.0 mg/mL total protein concentration) were preincubated with varying concentrations of inhibitors at 37° C. After 30 min, the ABPP probe JW912-Bodipy (1.0 µL, 50 µM in DMSO) was added and the mixture was incubated for 30 min at room temperature. Reactions were quenched with SDS loading buffer (15 μL-4×) and run on SDS-PAGE. Following gel imaging, serine hydrolase activity was determined by measuring fluorescent intensity of gel bands corresponding to MAGL using ImageJ 1.43u software. Intensities were converted to percent enzyme activity by normalizing to DMSO controls. IC50 values were determined by fitting percent enzyme activities to a non-linear regression, 4-parameter, sigmoidal dose response function in Prism GraphPad.

[2] = PBS pH 7.4, RT, read-out: pH 7.4 Solubility (kinetic)

Row | MAGL % inh. 1 µM (human PC3) (MAGL) [%] | Structure (SMILES) | further results
1 | 100 | CN(C(=O)C1CC12CCN(C(=O)OC(C(F)(F)F)C(F)(F)F)CC2)c1ccccn1 (single isomer, unassigned) [Example 46, 1,1,1,3,3,3-hexafluoropropan-2-yl (R or S)-1-(methyl(pyridin-2-yl)carbamoyl)-6-azaspiro[2.5]octane-6-carboxylate] | –
2 | 100 | O=C(Nc1ccccn1)C1CC12CCN(C(=O)OC(C(F)(F)F)C(F)(F)F)CC2 (single isomer, unassigned) [Example 49, 1,1,1,3,3,3-hexafluoropropan-2-yl (R or S)-1-(pyridin-2-ylcarbamoyl)-6-azaspiro[2.5]octane-6-carboxylate] | –
3 | 100 | O=C(OC(C(F)(F)F)C(F)(F)F)N1CCC2(CC1)CC2C(=O)N1CCn2cc(C(F)(F)F)nc2C1 (single isomer, unassigned) [Example 52, 1,1,1,3,3,3-hexafluoropropan-2-yl (R or S)-1-(2-(trifluoromethyl)-5,6,7,8-tetrahydroimidazo[1,2-a]pyrazine-7-carbonyl)-6-azaspiro[2.5]octane-6-carboxylate] | –
4 | 100 | O=C(Nc1cnccn1)C1CC12CCN(C(=O)OC(C(F)(F)F)C(F)(F)F)CC2 (single isomer, unassigned) [Example 55, 1,1,1,3,3,3-hexafluoropropan-2-yl (R or S)-1-(pyrazin-2-ylcarbamoyl)-6-azaspiro[2.5]octane-6-carboxylate] | –
5 | 100 | O=C(OC(C(F)(F)F)C(F)(F)F)N1CCC2(CC1)CC2C(=O)N1CCc2cnc(C(F)(F)F)nc2C1 (single isomer, unassigned) [Example 58, 1,1,1,3,3,3-hexafluoropropan-2-yl (R or S)-1-(2-(trifluoromethyl)-5,6,7,8-tetrahydropyrido[3,4-d]pyrimidine-7-carbonyl)-6-azaspiro[2.5]octane-6-carboxylate] | –
6 | 100 | O=C(OC(C(F)(F)F)C(F)(F)F)N1CCC2(CC1)CC2C(=O)N1CCc2nc(C3CC3)ncc2C1 (single isomer, unassigned) [Example 64, 1,1,1,3,3,3-hexafluoropropan-2-yl (R or S)-1-(2-cyclopropyl-5,6,7,8-tetrahydropyrido[4,3-d]pyrimidine-6-carbonyl)-6-azaspiro[2.5]octane-6-carboxylate] | –
7 | 100 | Cc1ncccc1NC(=O)C1CC12CCN(C(=O)OC(C(F)(F)F)C(F)(F)F)CC2 (single isomer, unassigned) [Example 69, 1,1,1,3,3,3-hexafluoropropan-2-yl (R or S)-1-((2-methylpyridin-3-yl)carbamoyl)-6-azaspiro[2.5]octane-6-carboxylate] | –
8 | 75 | Cc1ncccc1NC(=O)C1CC12CCN(C(=O)OC(C(F)(F)F)C(F)(F)F)CC2 (single isomer, unassigned) [Example 70, 1,1,1,3,3,3-hexafluoropropan-2-yl (R or S)-1-((2-methylpyridin-3-yl)carbamoyl)-6-azaspiro[2.5]octane-6-carboxylate] | –
9 | 100 | O=C(Nc1cccc(C(F)(F)F)n1)C1CC12CCN(C(=O)OC(C(F)(F)F)C(F)(F)F)CC2 (single isomer, unassigned) [Example 73, 1,1,1,3,3,3-hexafluoropropan-2-yl (R or S)-1-((6-(trifluoromethyl)pyridin-2-yl)carbamoyl)-6-azaspiro[2.5]octane-6-carboxylate] | –
10 | 100 | O=C(Nc1cccnc1C(F)(F)F)C1CC12CCN(C(=O)OC(C(F)(F)F)C(F)(F)F)CC2 (single isomer, unassigned) [Example 85, 1,1,1,3,3,3-hexafluoropropan-2-yl (R or S)-1-((2-(trifluoromethyl)pyridin-3-yl)carbamoyl)-6-azaspiro[2.5]octane-6-carboxylate] | –
11 | 100 | O=C(NCc1cccnc1)C1CC12CCN(C(=O)OC(C(F)(F)F)C(F)(F)F)CC2 (single isomer, unassigned) [Example 88, 1,1,1,3,3,3-hexafluoropropan-2-yl (R or S)-1-((pyridin-3-ylmethyl)carbamoyl)-6-azaspiro[2.5]octane-6-carboxylate] | –
12 | 100 | O=C(NC(=O)C1CC12CCN(C(=O)OC(C(F)(F)F)C(F)(F)F)CC2)c1ccccc1 (single isomer, unassigned) [Example 94, 1,1,1,3,3,3-hexafluoropropan-2-yl (R or S)-1-(benzoylcarbamoyl)-6-azaspiro[2.5]octane-6-carboxylate] | –

The remaining lines, values behind:

Row | Structure (SMILES) | MAGL % inh. 1 µM (human PC3) (MAGL) [%] | further results
13 | O=C(Nc1ccnc(C(F)(F)F)n1)[C@H]1CC12CCN(C(=O)OC(C(F)(F)F)C(F)(F)F)CC2 (single isomer, unassigned) [Example 17] | – | solubility kinetic at 2 h [1, 2]: 0.07 µM
14 | O=C(OC(C(F)(F)F)C(F)(F)F)N1CCC2(CC1)CC2C(=O)N1CCc2ncncc2C1 (single isomer, unassigned) [Example 61, 1,1,1,3,3,3-hexafluoropropan-2-yl (R or S)-1-(5,6,7,8-tetrahydropyrido[4,3-d]pyrimidine-6-carbonyl)-6-azaspiro[2.5]octane-6-carboxylate] | 75 | –
15 | O=C(Nc1cncc(Cl)c1)C1CC12CCN(C(=O)OC(C(F)(F)F)C(F)(F)F)CC2 (single isomer, unassigned) [Example 66, 1,1,1,3,3,3-hexafluoropropan-2-yl (R or S)-1-((5-chloropyridin-3-yl)carbamoyl)-6-azaspiro[2.5]octane-6-carboxylate] | – | solubility kinetic at 2 h [1, 2]: 8.74 µM
16 | O=C(Nc1cncc(Cl)c1)C1CC12CCN(C(=O)OC(C(F)(F)F)C(F)(F)F)CC2 (single isomer, unassigned) [Example 67, 1,1,1,3,3,3-hexafluoropropan-2-yl (R or S)-1-((5-chloropyridin-3-yl)carbamoyl)-6-azaspiro[2.5]octane-6-carboxylate] | 100 | –
17 | O=C(Nc1ccc(C(F)(F)F)nc1)C1CC12CCN(C(=O)OC(C(F)(F)F)C(F)(F)F)CC2 (single isomer, unassigned) [Example 79, 1,1,1,3,3,3-hexafluoropropan-2-yl (R or S)-1-((6-(trifluoromethyl)pyridin-3-yl)carbamoyl)-6-azaspiro[2.5]octane-6-carboxylate] | 50 | –
18 | Cc1ccc(NC(=O)C2CC23CCN(C(=O)OC(C(F)(F)F)C(F)(F)F)CC3)cn1 (single isomer, unassigned) [Example 82, 1,1,1,3,3,3-hexafluoropropan-2-yl (R or S)-1-((6-methylpyridin-3-yl)carbamoyl)-6-azaspiro[2.5]octane-6-carboxylate] | 100 | –
19 | O=C(NC(=O)C1CC12CCN(C(=O)OC(C(F)(F)F)C(F)(F)F)CC2)C1CCCCC1 (single isomer, unassigned) [Example 90, 1,1,1,3,3,3-hexafluoropropan-2-yl (R or S)-1-((cyclohexanecarbonyl)carbamoyl)-6-azaspiro[2.5]octane-6-carboxylate] | – | solubility kinetic at 2 h ([1]; PBS pH 2.0, RT, read-out: pH 2 Solubility (kinetic)): 33 µM
20 | O=C(NC(=O)C1CC12CCN(C(=O)OC(C(F)(F)F)C(F)(F)F)CC2)C1CCCCC1 (single isomer, unassigned) [Example 91, 1,1,1,3,3,3-hexafluoropropan-2-yl (R or S)-1-((cyclohexanecarbonyl)carbamoyl)-6-azaspiro[2.5]octane-6-carboxylate] | 100 | –
21 | O=C(Nc1cncnc1)C1CC12CCN(C(=O)OC(C(F)(F)F)C(F)(F)F)CC2 (single isomer, unassigned) [Example 97, 1,1,1,3,3,3-hexafluoropropan-2-yl (R or S)-1-(pyrimidin-5-ylcarbamoyl)-6-azaspiro[2.5]octane-6-carboxylate] | 90 | –
22 | O=C(Nc1cnc(C(F)(F)F)nc1)C1CC12CCN(C(=O)OC(C(F)(F)F)C(F)(F)F)CC2 (single isomer, unassigned) [Example 100, 1,1,1,3,3,3-hexafluoropropan-2-yl (R or S)-1-((2-(trifluoromethyl)pyrimidin-5-yl)carbamoyl)-6-azaspiro[2.5]octane-6-carboxylate] | 75 | –
